Non-standard residues stand in square brackets, D forms with d. Residues, ends and D or L forms follow the SMILES beside them. *: point of attachment. Phe(4-Cl) = N[C@@H](Cc1ccc(Cl)cc1)C(=O)O; hArg = N=C(N)NCCCC[C@H](N)C(=O)O; 12Ado = NCCCCCCCCCCCC(=O)O; Nle = CCCC[C@H](N)C(=O)O; Orn = NCCC[C@H](N)C(=O)O; Abu = CC[C@H](N)C(=O)O; PhAc = O=C(Cc1ccccc1)*
Experiments:
[1] = system: J82 urothelial cancer cells; test: In vitro cell viability, J82; format: cell-based, human; settings: antagonist 5 μM for 72 h, cell proliferation assay; MIA602 = 1
Procedure: (§1) The inhibitory effects of the various synthesized GHRH antagonists were tested in cell proliferation assays in various human cancer cell lines including stomach cancer (KATOIII, N87), colon cancer (HT-29), urothelial cancer (J82, RT4), pancreatic cancer (PANC-1, CFPAC-1), prostatic cancer (PC3), breast cancer (MX-1, HCC1806), ovarian cancer (SK-OV-3, OVCAR-3) and lung cancer (HCC827, H460).
(§2) Cell culture. Human cancer cell lines including pancreatic (PANC-1 and CFPAC-1), lung (HCC827 and H460), stomach (NCI-N87 and KATOIII), urothelial (J82, RT4), prostatic (PC3), breast (MX-1 and HCC 1806), colorectal (HT-29), and ovarian (SK-OV-3 and OVCAR-3) were obtained from the American Type Culture Collection (ATCC) and cultured at 37° C. in a humidified 95% air/5% CO2 atmosphere in the medium recommended by ATCC.
(§3) In vitro cell viability. Cell viability was analyzed as follows: cancer cells including pancreatic (PANC-1 and CFPAC-1), lung (HCC827 and H460), stomach (NCI-N87 and KATOIII), urothelial (J82, RT4), prostatic (PC3) and breast (MX-1 and HCC 1806), colorectal (HT-29) and ovarian (SK-OV-3 and OVCAR-3) were grown on 96 well plates to ˜60% confluence, the cells were starved for 24 h in culture medium containing 0.5% FBS. Cells were then treated with GHRH antagonists MIA602 AVR compounds at concentrations of 1, 2.5 or 5 μM, or vehicle (0.1% DMSO) in quintuplicates for 72 hours. The medium was replaced every 48 hours. Cell viability was measured using CellTiter 96 aqueous one solution kit (Promega). Inhibitory effects of tested AVR compounds in comparison to that of MIA602 are presented as inhibitory potency.
(§4) Inhibitory effects of selected AVR compounds in comparison to that of MIA602 are presented as inhibitory potency (e.g., percentage of inhibition). […] The cell lines tested including lung cancer HCC827 (FIG. 2A), pancreatic cancer CFPAC-1 (FIG. 2B), stomach cancer N87 (FIG. 2C), colon cancer HT-29 (FIG. 2D), breast cancers MX-1 and HCC1806 (FIGS. 2 E, F). Based on the results of cell proliferation assay after cancer cells were treated with antagonist at concentration of 5 μM for 72H, the relative inhibitory potency of AVR antagonists in comparison to MIA-602 is summarized in Table 3 A and B. Over 60 AVR compounds were tested in 12 cancer cell lines.

[2] = system: NCI-N87 stomach cancer cells; test: In vitro cell viability (CellTiter 96), N87; format: cell-based, human; settings: antagonist 5 μM for 72 h, cell proliferation assay; MIA602 = 1
Procedure: as §1, §2, §3, §4
(§5) Based on the results of cell proliferation assay after cancer cells were treated with antagonist at concentration of 5 µM for 72H, * at concentration of 2 µM for 72 H.

[3] = system: RT4 urothelial cancer cells; test: In vitro cell viability, RT4; format: cell-based, human; settings: antagonist 5 μM for 72 h, cell proliferation assay; MIA602 = 1
Procedure: as §1, §2, §3
(§6) Inhibitory effects of selected AVR compounds in comparison to that of MIA602 are presented as inhibitory potency (e.g., percentage of inhibition). […] The cell lines tested including lung cancer HCC827 (FIG. 2A), pancreatic cancer CFPAC-1 (FIG. 2B), stomach cancer N87 (FIG. 2C), colon cancer HT-29 (FIG. 2D), breast cancers MX-1 and HCC1806 (FIGS. 2 E, F). […]

[4] = system: PC3 prostatic cancer cells; test: In vitro cell viability, PC3; format: cell-based, human; settings: antagonist 5 μM for 72 h, cell proliferation assay; MIA602 = 1
Procedure: as §1, §2, §3, §6

[5] = system: KATOIII stomach cancer cells; test: In vitro cell viability, KATOIII; format: cell-based, human; settings: antagonist 5 μM for 72 h, cell proliferation assay; MIA602 = 1
Summary of the method: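 Cells grown to ~60% confluence, serum-starved 24 h in 0.5% FBS, then treated with antagonists at 1, 2.5 or 5 μM or vehicle (0.1% DMSO) in quintuplicate for 72 h, medium replaced every 48 h. Viability read by MTS-type CellTiter 96 AQueous One assay; expressed as inhibitory potency relative to MIA602.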

MX-1 breast cancer cells = test: In vitro cell viability, MX-1; format: cell-based, human; settings: antagonist 5 μM for 72 h, cell proliferation assay; MIA602 = 1
Procedure: as §1, §2, §3, §4, §5

[6] = target: T1, membrane GHRH-receptors on human anterior pituitary cells (Homo sapiens, UniProt Q02643); test: Receptor binding, displacement of 125I-[His1,Nle27]-hGH-RH(1-32)NH2 on human pituitary membranes
T1 construct: Human pituitary was purchased from the National Hormone and Peptide Program; tissue National Hormone and Peptide Program; host or cells: human pituitary (membrane fractions)
T1 sequence (Q02643 23-423): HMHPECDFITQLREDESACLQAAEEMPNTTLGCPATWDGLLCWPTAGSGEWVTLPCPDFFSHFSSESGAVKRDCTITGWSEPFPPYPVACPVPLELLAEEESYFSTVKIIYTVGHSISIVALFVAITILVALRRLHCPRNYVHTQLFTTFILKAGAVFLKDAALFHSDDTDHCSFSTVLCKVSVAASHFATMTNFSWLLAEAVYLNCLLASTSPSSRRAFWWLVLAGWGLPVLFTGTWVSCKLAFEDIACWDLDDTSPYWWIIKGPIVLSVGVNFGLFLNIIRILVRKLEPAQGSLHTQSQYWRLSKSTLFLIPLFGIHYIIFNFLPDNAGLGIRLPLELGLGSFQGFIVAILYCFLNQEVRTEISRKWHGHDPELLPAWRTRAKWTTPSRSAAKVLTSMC
Summary of the method: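 Membrane fractions from human pituitary; peptides displace 125I-[His1,Nle27]-hGH-RH(1-32)NH2. IC50 is the dose giving 50% inhibition of specific binding, from duplicate tubes. Relative affinity is the ratio of test IC50 to hGH-RH(1-29)NH2 IC50.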

HCC827 lung cancer cells = test: In vitro cell viability, HCC827; format: cell-based, human; settings: antagonist 5 μM for 72 h, cell proliferation assay; MIA602 = 1
Summary of the method: (§7)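 Human tumour lines were exposed to GHRH antagonist at 1, 2.5 or 5 μM for 72 h with medium refreshed every 48 h, after 24 h in low-serum (0.5% FBS) medium. Cell viability (CellTiter 96) was expressed as inhibition relative to MIA602.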

[7] = system: HCC1806 breast cancer cells; test: In vitro cell viability, HCC1806; format: cell-based, human; settings: antagonist 5 μM for 72 h, cell proliferation assay; MIA602 = 1
Procedure: as §1, §2, §3, §4, §5

[8] = system: CFPAC-1 pancreatic cancer cells; test: In vitro cell viability, CFPAC-1; format: cell-based, human; settings: antagonist 5 μM for 72 h, cell proliferation assay; MIA602 = 1
Summary of the method: as §7

[9] = system: PANC-1 pancreatic cancer cells; test: In vitro cell viability, PANC-1; format: cell-based, human; settings: antagonist 5 μM for 72 h, cell proliferation assay; MIA602 = 1
Procedure: as §1, §2, §3, §4

In the case of `CCCC[C@H](NC(=O)[C@@H](NC(=O)[C@H](CC(=O)O)NC(=O)[C@H](CCC(N)=O)NC(=O)[C@H](CC(C)C)NC(=O)[C@H](CC(C)C)NC(=O)[C@H](CCCN)NC(=O)[C@H](Cc1c[nH]cn1)NC(=O)[C@H](C)NC(=O)[C@H](CO)NC(=O)[C@H](CC(C)C)NC(=O)[C@H](CCC(N)=O)NC(=O)[C@H](CC)NC(=O)[C@H](CC(C)C)NC(=O)[C@@H](NC(=O)[C@H](CCCCN)NC(=O)[C@H](CCCNC(=N)N)NC(=O)[C@H](Cc1ccc(OC)cc1)NC(=O)[C@H](CCCNC(=N)N)NC(=O)[C@H](C)NC(=O)[C@@H](NC(=O)[C@H](Cc1ccc(Cl)cc1)NC(=O)[C@@H](NC(=O)[C@H](C)NC(=O)[C@H](CC(=O)O)NC(=O)[C@@H](CCCNC(=N)N)NC(=O)[C@H](Cc1ccc(O)cc1)NC(=O)CCCCCCCCCCCNC(=O)Cc1ccccc1)[C@@H](C)CC)[C@@H](C)O)C(C)C)[C@@H](C)CC)C(=O)N[C@H](CCCNC(=N)N)C(=O)N[C@@H](CCCCNC(=N)N)C(N)=O` [AVR-104, PhAC-Ada-Tyr-DArg-Asp-Ala-Ile-Cpa-Thr-Ala-Arg-Tyr(Me)-Arg-Lys-Val-Leu-Abu-Gln-Leu-Ser-Ala-His-Orn-Leu-Leu-Gln-Asp-Ile-Nle-DArg-Har-NH2] ({PhAc-12Ado}-Y[dR]DAI[Phe(4-Cl)]TARY(Me)RKVL[Abu]QLSAH[Orn]LLQDI[Nle][dR][hArg]-NH2), the “relative inhibitory potency in comparison to MIA-602, Urothelial J82” value [1] is reported as 3.377, the “relative inhibitory potency in comparison to MIA-602, Stomach N87” value [2] is reported as 2.291 and the “relative inhibitory potency in comparison to MIA-602, Urothelial RT4” value [3] is reported as 1.697. For the same compound, the “relative inhibitory potency in comparison to MIA-602, Prostatic PC3” value [4] was 1.440, the “relative inhibitory potency in comparison to MIA-602, Stomach KATOIII” value [5] was 1.321 and the “relative inhibitory potency in comparison to MIA-602, Breast MX-1” value (MX-1 breast cancer cells) was 1.310. The IC50 [6] was 0.59 nM, the “relative inhibitory potency in comparison to MIA-602, Lung IICC827” value (HCC827 lung cancer cells) was 1.525 and the “relative inhibitory potency in comparison to MIA-602, Breast IICC1806” value [7] was 1.220. The “relative inhibitory potency in comparison to MIA-602, Pancreatic CFPAC-1” value [8] was 1.502 and the “relative inhibitory potency in comparison to MIA-602, Pancreatic Panc-1” value [9] was 1.114.

Reference: patent US20210395327A1, “Growth Hormone-Releasing Hormone Antagonists and Uses Thereof” (United States Government As Represented By The Department …, priority 2019, published 2021)
